Experimental findings from patent US12201628B2, “Neuronal modulation” (priority 2013, dated 2025) are described below.

“Also recorded” adds a separate entry of the source.

For the assay, the system named is VTA dopaminergic neurons. In words: Conditional place preference (CPP) paradigm. It is filed as in vivo, mice. The conditions noted are these: CNO 2.5 mg/kg. How it is done: All behavioral tests were conducted during the same circadian period. The conditional place preference (CPP) test was performed in a rectangular cage with two chambers (25 cm×25 cm each), with a corridor (5 cm×5 cm) connecting the two chambers. The chambers differed in their visual cues and were designed so that mice will have no bias for a particular chamber. The CPP paradigm consisted of four sessions over four days and was conducted 30 days after the viral stereotactic injection. On day 1, individual mice were placed in the connecting corridor (in the same direction) and allowed to freely explore the entire apparatus for 15 minutes (pre-test). On day 2, mice were IP injected with CNO (2.5 mg/kg, Sigma-Aldrich) diluted in sterile saline in order to activate the VTA dopaminergic neurons and then the mice were confined to one of the chambers for 30 min. On day 3, mice were confined to the other chamber for 30 min, 10 min after an injection of sterile saline. On day 4, mice were placed in the center chamber and allowed to freely explore the entire apparatus for 15 minutes (post-test). To calculate the level of preference, the relative time (%) the mouse spent during post-test in the conditioned chamber (the chamber where it received the CNO injection) was divided by the relative time (%) the mouse spent in this chamber during the pre-test (post/pre ratio). Of note, mice in both groups were injected with CNO to control for the potential effects of CNO. The analysis was performed automatically using EthoVision software.
Behavioral analysis (conditioned place preference; CPP): Three groups of mice were used in this experiment: mice injected with AAV virus encoding the hM3D (Gq), hM4D (Gi) or control carrying only mCherry. On day 1 the mice were given a chance to explore the apparatus for 5 minutes. […] At this stage the mice were only allowed access to one compartment of the apparatus and remains in the compartment for 30 minutes. Day 3: Mice were confounded to the other compartment. […] Time spent in each compartment was measured by motion detecting software (EthoVision). […]

`C[N+]1([O-])CCN(C2=Nc3cc(Cl)ccc3Nc3ccccc32)CC1` [CNO, clozapine-N-oxide]: the “preference for conditioned chamber (CPP)” value (Gi (hM4D) mice) is on record as “avoided the conditioned chamber”; the “preference for conditioned chamber (CPP)” value (Gq (hM3D, VTA-activated) mice) is reported as “exhibited a preference for the conditioned chamber; also recorded: increased preference to the conditioned chamber; also recorded: strong preference towards the chamber in which they were injected with CNO”; the “preference for conditioned chamber (CPP)” value (control mice (mCherry only virus)) is given as “no such bias; also recorded: did not show a clear preference to any single chamber”.
